# Key:
# [1] = test system: SK-HEP-1: human liver cell cancer line; experiment: MTT assay on SK-HEP-1; assay type: cell-based; conditions: SK-HEP1, 96 h, growth inhibition, 96 h incubation
# Method: (§1) The analysis of the cytotoxic effects of the ADCs was carried out with various cell lines:
# (§2) The cells were cultivated by the standard method as stated by the American Tissue Culture Collection (ATCC) or the Leibniz-lnstitut DSMZ-Deutsche Sammlung von Mikroorganismen und Zellkulturen GmbH (DSMZ) for the cell lines in question.
# (§3) The cells were then incubated in an incubator at 37° C. and 5% carbon dioxide. […] To this end, the MTT reagent was incubated with the cells for 4 h, followed by lysis of the cells overnight by addition of the detergent. […] The measured data were used to calculate the ICo50 of the growth inhibition using the DRC (dose response curve). The proliferation of cells which were not treated with test substance but were otherwise identically treated was defined as the 100% figure.
# [2] = test system: NCI-H292: human mucoepidermoid lung carcinoma cells; experiment: MTT assay on NCI-H292; assay type: cell-based; conditions: NCI-H292, 96 h, growth inhibition, 96 h incubation
# Method: as §1, §2, §3
# [3] = test system: KPL4: human breast cancer cell line; experiment: MTT assay on KPL4; assay type: cell-based; conditions: KPL4, 96 h, growth inhibition, 96 h incubation
# Method: as §1, §2, §3
# [4] = molecular target: T1, motor domain of the human kinesin spindle protein KSP/Eg5 (Homo sapiens, UniProt P52732); experiment: Inhibition of the kinesin spindle protein KSP/Eg5 (ATPase activity, malachite green); assay type: biochemical; conditions: 10 nM KSP/Eg5, microtubuli, 500 μM ATP, 2 h at RT
# T1 construct: The motor domain of the human kinesin spindle protein KSP/Eg5; purchased tebu-bio/Cytoskeleton Inc 027EG01-XL
# T1 sequence (P52732 18-359 limits assumed): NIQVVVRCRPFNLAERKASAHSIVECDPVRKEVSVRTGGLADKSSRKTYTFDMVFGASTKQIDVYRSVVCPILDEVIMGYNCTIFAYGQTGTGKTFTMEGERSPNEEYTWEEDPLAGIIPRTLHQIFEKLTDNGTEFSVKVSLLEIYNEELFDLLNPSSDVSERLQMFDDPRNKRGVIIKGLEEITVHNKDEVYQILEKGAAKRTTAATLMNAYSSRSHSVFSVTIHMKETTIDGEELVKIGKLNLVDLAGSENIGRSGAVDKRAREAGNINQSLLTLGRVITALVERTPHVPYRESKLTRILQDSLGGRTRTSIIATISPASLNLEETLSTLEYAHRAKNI
# Method: The motor domain of the human kinesin spindle protein KSP/Eg5 (tebu-bio/Cytoskeleton Inc, No. 027EG01-XL) was incubated in a concentration of 10 nM with microtubuli (bovine or porcine, tebu-bio/Cytoskeleton Inc) stabilized with 50 μg/ml taxol (Sigma No. T7191-5MG) for 5 min at RT in 15 mM PIPES, pH 6.8 (5 mM MgCl2 and 10 mM DTT, Sigma). […] Incubation was at RT for 2 h. ATPase activity was detected by detecting the inorganic phosphate formed using malachite green (Biomol). […] The positive controls used were monastrol (Sigma, M8515-1 mg) and ispinesib (AdooQ Bioscience A10486). The individual data of the dose-activity curve are eight-fold determinations. The IC50 values are means of two independent experiments.
# [5] = Assay for determination of stability in rat plasma; assay type: in vitro ADME; conditions: 1 μg/ml, 37° C., 24 h
# Method: To examine the stability of compounds A and B, 1 ml of rat plasma in a 1.5 ml Eppendorf tube in each case was equilibrated to 37° C. on an Eppendorf shaker. A stock solution (9 acetonitrile/1 DMSO) having a concentration of 100 μg/ml for compound A and compound B was prepared. 10 μl in each case of the stock solution were pipetted into 1 ml of equilibrated rat plasma, so as to give a concentration of 1 μg/ml.
# The samples were kept at 450 rpm and 37° C. for 24 h. At each of the sampling times of 0, 0.25 h, 0.5 h, 1 h, 2 h, 4 h, 6 h and 24 h, 50 μl were taken and pipetted into 150 μl of methanol. Internal standard was included in the initial charge of methanol at a concentration of 0.05 μg/ml. After brief vortexing, 300 μl of 10 mM ammonium acetate buffer (pH 6.8) were added and centrifuged at 1881 g for 10 min. The samples were then analysed by means of RP-HPLC analysis and by LC-MS analysis.
SMILES,IC50 [1] [nM],IC50 [2] [nM],IC50 [3] [nM],IC50 [4] [nM],stability in rat plasma [5]
"CC(C)(C)[C@H](c1cc(-c2cc(F)ccc2F)cn1Cc1ccccc1)N(CC[C@H](N)C(=O)NCCNC(=O)CNC(=O)CCCC(=O)NCCCC[C@H](N)C(=O)O)C(=O)CO [Example M28, N^6—{(3R,7S)-7-Amino-3-[1-benzyl-4-(2,5-difluorophenyl)-1H-pyrrol-2-yl]-4-glycoloyl-2,2-dimethyl-8,13,16,20-tetraoxo-4,9,12,15-tetraazaicosan-20-yl}-L-lysine/trifluoroacetic acid (1:1)]",187,155,210,1.41,
"CC(C)(C)[C@H](c1cc(-c2cc(F)ccc2F)cn1Cc1ccccc1)N(CC[C@H](N)C(=O)NCCNC(=O)CCCC(=O)NCCCC[C@H](N)C(=O)O)C(=O)CO [Example M29, N^6-(5-{[2-({(2S)-2-Amino-4-[{(1R)-1-[1-benzyl-4-(2,5-difluorophenyl)-1H-pyrrol-2-yl]-2,2-dimethylpropyl} (glycoloyl)amino]butanoyl}amino)ethyl]amino}-5-oxopentanoyl)-L-lysine/trifluoroacetic acid (1:1)]",207,187,,2.03,
"CNC(=O)[C@H](CCN(C(=O)CO)[C@@H](c1cc(-c2cc(F)ccc2F)cn1Cc1ccccc1)C(C)(C)C)NC(=O)[C@H](CC(N)=O)NC(=O)[C@H](C)NC(=O)[C@H](C)NC(=O)Cc1ccncc1 [Example R3r-LLL, N-(Pyridin-4-ylacetyl)-L-alanyl-L-alanyl-N^1-[(2S)-4-[{(1R)-1-[1-benzyl-4-(2,5-difluorophenyl)-1H-pyrrol-2-yl]-2,2-dimethylpropyl}(glycoloyl)amino]-1-(methylamino)-1-oxobutan-2-yl]-L-aspartamide, reference compound]",232,204,,162,stable over 24 h
